Assay results reported in patent US20210386791A1, “METHODS OF CELLULAR REPROGRAMMING” (TissueTech, Inc., priority 2018, published 2021).

Assays:
Type in all cases: cell-based
[1] = system: human corneal fibroblasts (HCF); test: P3 HCF on plastic with or without immobilized HA or HC-HA/PTX3, with or without TGFβ1: mRNA, ELISA, Western blot, immunostaining; conditions: with TGFβ1
Method: A total of 89 human corneas from individuals aged 18-76 years and maintained at 4° C. in Optisol (Chiron Vision, Irvine, Calif.) for less than 7 days after death were obtained from the Florida Lions Eye Bank (Miami, Fla.) and handled according to the declaration of Helsinki. HCF were isolated and cultured. Epithelial and endothelial cells were removed from corneas, the stroma was cut into cubes of approximately 1 mm^3, incubated in 2 mg/ml collagenase for 16 h at 37° C., and then placed in a culture medium consisting of Dulbecco's modified Eagle's medium (DMEM) supplemented with 10% fetal bovine serum containing […]. The culture medium was changed twice a week. The morphology of the cells was monitored by Nikon Eclipse TS 100 microscope (Melville, N.Y.). Cells cultured to passage 3 (P3) were used for all experiments.
Human corneal fibroblasts (P3) were seeded on plastics with or without immobilized HC-HA/PTX3 complex for 72 h in DMEM+10% FBS, then serum starved for 24 h and treated with or without TGFβ1 for 24 h before being harvested for mRNA quantitation or immunostaining. For determination of protein of TGFβ receptor or p75NTR, the cells were treated with or without TGF-β1 for 48 h before collection of protein samples because the protein expression lags behind mRNA expression. For TGF-β1 ELISA, the cells were treated with or without TGF-β1 for 24 h, and then cultured in the fresh medium for another 24 h. The supernatants were collected for TGFβ1 ELISA. For TGFβ2 and TGFβ3 ELISA, the cells were treated with or without TGFβ1 for 48 h. Certain HCF were seeded on glass in DMEM+10% FBS for 24 h, then in DMEM+ITS (insulin-transferrin-selenium) for 24 h, treated with/without PBS or hyaluronic acid (HA) or HC-HA/PTX3±TGFβ1 (10 ng/ml)±Marimastat (10 μM) or ±DAPT (10 μM) or ±both for 0, 5, 15, 30 and 45 minutes before being harvested for immunostaining of CD44-ICD, JNK1, Cyclin D1 and p75NTR and for 5 minutes before being harvested for Western blotting of cytoplasmic and nuclear CD44-ICD, active MT1-MMP, and active γ-secretase after compartmental separation of the cellular components.
Total RNAs were extracted using RNeasy Mini Kit and were reverse transcribed using High Capacity Reverse Transcription Kit (Applied Biosystems). cDNA obtained was amplified by real-time RT-PCR using specific primer-probe mixtures and DNA polymerase in 7000 Real-time PCR System (Thermo-Fisher Scientific, Carlsbad, Calif.). Real-time RT-PCR profile consisted of 10 minutes of initial activation at 95° C., followed by 40 cycles of 15 seconds denaturation at 95° C., and 1 min annealing and 1 min extension at 60° C. The genuine identity of each PCR product was confirmed by the size determination using 2% agarose gels followed by ethidium bromide staining together with PCR marker according to EC3 Imaging System (BioImaging System, Upland, Calif.).
The Quantikine Human ELISA Kits of TGFβs were used for determination of TGFβs following the manufacturer's instructions (R and D Systems, Minneapolis, Minn.).
HCF, induced human corneal endothelial cells (HCEC), and HCEC monolayer cultures were air-dried and fixed in 4% formaldehyde, pH 7.0, for 15 min at room temperature, rehydrated in PBS, incubated with 0.2% Triton X-100 for 15 min, and rinsed three times with PBS for 5 min each. After incubation with 2% BSA to block non-specific staining for 30 min, they were incubated with the desired first antibody (all at 1:50 dilution) for 16 h at 4° C. After three washes with PBS, they were incubated with corresponding Alexa-Fluor-conjugated secondary IgG (all 1:100 dilutions) for 60 min. The samples were then counterstained with Hoechst 33342 and analyzed with Zeiss LSM 700 confocal microscope (Thornhood, N.Y.). Corresponding mouse and rabbit sera were used as negative controls for primary monoclonal and polyclonal antibodies, respectively. […]

[2] = system: human corneal fibroblasts (HCF); test: Reversal of HCF to keratocytes on immobilized HC-HA/PTX3 with or without SB431542 or AMD3100
Method: A total of 86 human corneas from individuals aged 18-76 years and maintained at 4° C. in Optisol (Chiron Vision, Irvine, Calif.) for less than 7 days after death were obtained from the Florida Lions Eye Bank (Miami, Fla.) and handled according to the declaration of Helsinki. HCF were isolated and cultured. Briefly, the sheets of the epithelium and the endothelium were removed from corneas, the stroma sections were cut into cubes of approximately 1 mm3, incubated in 2 mg/ml collagenase for 16 h at 37° C., and then placed in a culture medium consisting of DMEM supplemented with 10% fetal bovine serum containing […]. The culture medium was refreshed twice a week. The cells cultured to passage 3 were used for all experiments. To reverse fibroblasts or myofibroblasts into keratocytes, fibroblasts or myofibroblasts were cultured on immobilized HC-HA/PTX3 in DMEM+10% FBS for 3 days using the samples from the cells on plastic and HA as the controls. Some of the cell cultures were extended to up to 7 days of culture to monitor the expression of α-SMA formation. Total RNAs were extracted using RNeasy Mini Kit (Qiagen) and reverse-transcribed using High Capacity Reverse Transcription Kit (Applied Biosystems). cDNA was amplified by real-time RT-PCR using specific primer-probe mixtures and DNA polymerase in Quant Studio 5 Real-time PCR System (Applied Biosystems). Real-time RT-PCR profile consisted of 10 min of initial activation at 95° C., followed by 40 cycles of 15 s denaturation at 95° C., and 1 min annealing and extension at 60° C. The genuine identity of each PCR product was confirmed by the size determination using 2% agarose gels followed by ethidium bromide staining together with PCR marker according to EC3 Imaging System (BioImaging System, Upland, Calif.). The samples of human corneal fibroblasts, myofibroblasts and corneal keratocytes were air-dried and fixed in 4% formaldehyde, pH 7.0, for 15 min at room temperature, rehydrated in PBS, incubated with 0.2% Triton X-100 for 15 min, and rinsed 3 times with PBS for 5 min each. […] After three washes with PBS, they were incubated with corresponding Alexa-Fluor-conjugated secondary IgG (all 1:100 dilution) for 60 min. The samples were then counterstained with Hoechst 33342 and analyzed in Zeiss LSM 700 confocal microscope (Thornhood, N.Y.). Corresponding mouse and rabbit sera were used as negative controls for primary monoclonal and polyclonal antibodies, respectively. Cell lysates were prepared in RIPA buffer and resolved on 4-15% (w/v) gradient acrylamide gels under denaturing and reducing conditions for Western blotting. The protein extracts were transferred to the nitrocellulose membrane, which was then blocked with 5% (w/v) fat-free milk in TBST [50 mM Tris-HCl, pH 7.5, 150 mM NaCl, 0.05% (v/v) Tween-20], followed by sequential incubation with the specific primary antibody against keratocan and its respective horseradish peroxidase (HRP)-conjugated secondary antibody using β-actin as the loading control. Immunoreactive proteins were detected with Western Lighting Chemiluminescence (PerkinElmer, Waltham, Mass.).

[3] = system: human corneal fibroblasts (HCF); test: Timing course analysis of SDF1/CXCR4 and BMP signaling in HCF
[4] = system: P10 LNC (human limbal niche cells); test: P10 LNC on coated MG with soluble HC-HA/PTX3 with or without AMD3100, LDN-193189 or BMP receptor siRNAs; conditions: for upregulation of CXCR4 transcript by soluble HC-HA/PTX3: with CXCR4 inhibitor
Method: Upon 80% confluence, P10 LNC cultured on coated Matrigel™ (MG) were pre-treated with 0.1% DMSO with or without 20 μg/mL AMD3100 or 100 nM LDN-193189 for 30 min before being trypsinized and seeded at 2×10^5/mL on coated MG in MESCM containing 20 μg/mL of AMD3100 or 100 nM LDN-193189 with 25 μg/mL soluble HC-HA/PTX3 for another 48 h. For the siRNA knockdown, 80% confluent P10 LNC on 6-well coated MG were subjected to transfection by mixing 200 μl of serum-free, antibiotic-free MESCM with 4 μL of HiPerFect siRNA transfection reagent (final dilution, 1:300) and 6 μl of 20 μM of scRNA or siRNAs for BMPR1A, BMPR1B, BMPR2, and ACVR1 at the final concentration of 100 nM, drop-wise, followed by culturing in 1 mL of fresh MESCM at 37° C. for 24 h before soluble HC-HA/PTX3 was added at a final concentration of 25 μg/mL in the MESCM medium.
RNA extract was reverse transcribed to cDNA with reverse-transcribed using High Capacity Reverse Transcription Kit (Applied Biosystems, Foster City, Calif.) using primers listed in Supplementary Table S3. The resultant cDNAs were amplified by specific TaqMan gene expression assay mix and universal PCR master mix in QuantStudio™ 5 Real Time PCR System (ThermoFisher, Santa Clara, Calif.) with real-time RT-PCR profile consisting of 10 min of initial activation at 95° C., followed by 40 cycles of 15 sec denaturation at 95° C., and 1 min annealing and extension at 60° C. The relative gene expression data were analyzed by the comparative CT method (MET). All assays were performed in triplicate. The results were normalized by glyceraldehyde 3-phosphate dehydrogenase (GAPDH) as an internal control.
Single cells of LNC at different passages were harvested with 0.05% trypsin and 1 mM EDTA at 37° C. for 10 min and prepared for cytospin using Cytofuge (StatSpin Inc., Norwood, Mass.) at 1000 rpm for 8 min. Cells were fixed with 4% formaldehyde, pH 7.0, for 15 min at room temperature, permeabilized with 0.2% Triton X-100 in PBS for 15 min and blocked with 2% bovine serum albumin (BSA) for 1 h before incubated with primary antibodies for 16 h at 4° C. After 3 washes with PBS, the corresponding Alexa Fluor-conjugated secondary IgG (all 1:100 dilution) were incubated for 60 min and 3 washing with PBS. After 3 washes with PBS, the second primary antibodies was incubated for 60 min and followed with the corresponding Alex Fluor-conjugated secondary IgG. The nucleus was counterstained with Hoechst 33342 before being analyzed with Zeiss LSM 700 confocal microscope (Carl Zeiss, Thornwood, N.Y.). Corresponding mouse and rabbit sera were used as negative controls for primary monoclonal and polyclonal antibodies, respectively.

[5] = HCF on HC-HA/PTX3 with CXCR4 inhibitor
[6] = soluble HC-HA/PTX3 with AMD3100

In the case of “TGFβ1: exogenous transforming growth factor β1, 10 ng/ml challenge”, the “NC marker mRNA, p75NTR protein and p75NTR nuclear translocation” value [1] is reported as “upregulated on plastic”.

In the case of NC(=O)c1ccc(-c2nc(-c3ccc4c(c3)OCO4)c(-c3ccccn3)[nH]2)cc1 [SB431542], the “BMP signaling and keratocan mRNA and protein expression” value ([2]; HCF on HC-HA/PTX3 with BMP inhibitor) is reported as “completely inhibited”, the “aggregation, expression of SDF1 and CXCR4 and nuclear translocation of CXCR4” value ([3]; HC-HA/PTX3 with SB431542) is reported as “did not affect” and the “expression of BMP4 and BMP6 and nuclear translocation of pSMAD1/5 induced by HC-HA/PTX3” value ([3]; with SB431542) is reported as “completely inhibited”.

With c1ccc2c(-c3cnn4cc(-c5ccc(N6CCNCC6)cc5)cnc34)ccnc2c1 [LDN-193189] the “transient nuclear translocation of CXCR4 and nuclear Pax6 staining” value ([4]; BMP signaling suppressed) was “not affected”, the “cell aggregation by soluble HC-HA/PTX3” value ([4]; BMP signaling suppressed, compared to scRNA control) was “not affect” and the “expression level of CXCR4 and SDF-1” value ([4]; BMP signaling suppressed, throughout 48 h) was “no significant difference”.

c1cc(CN2CCCNCCNCCCNCC2)ccc1CN1CCCNCCNCCCNCC1 [AMD3100] was tested, and the “cell aggregation, mRNA overexpression of SDF1 and CXCR4, CXCR4 nuclear translocation” value [2, 5] was “completely attenuated”, the keratocan protein expression [2, 5] was “blockade” and the “transcript expression of BMP4, BMP6, BMPR1A, BMPR1B, BMPR2 and nuclear translocation of pSMAD1/5” value [2, 5] was “completely nullified”. For the same molecule, the “immunostaining of SDF-1” value ([4]; after addition of AMD3100) was “became negative”, the “Pax6, p75NTR, NGF, Musashi-1, Msx-1 and FoxD3 transcripts” value [4, 6] was “significant downregulation” and the “immunofluorescence staining pattern of CXCR4” value [4, 6] was “reverted to that of 3D MG”. For the same molecule, the “staining of pSmad1/5/8” value [4, 6] was “deactivated to cytoplasmic staining”, the “transcript levels of BMP2, BMP4 and BMP6” value ([4]; soluble HC-HA/PTX3 with AMD3100, throughout 48 h) was “aborted” and the “nuclear Pax6 staining promoted by soluble HC-HA/PTX3” value ([4]; with AMD3100) was “aborted”. For the same molecule, the “cell aggregation promoted by soluble HC-HA/PTX3” value ([4]; with AMD3100 20 μg/mL, 60 min) was “completed aborted”, the “upregulation of SDF-1 transcript by soluble HC-HA/PTX3” value ([4]; with AMD3100, 24 h) was “completely abolished” and the “upregulation of CXCR4 transcript by soluble HC-HA/PTX3” value ([4]; 24 h) was “significantly downregulated”. The “upregulation of CXCR4 transcript by soluble HC-HA/PTX3” value ([4]; 48 h) was “completely aborted”, the “aggregation and expression of SDF1, CXCR4, BMP4 and BMP6 induced by HC-HA/PTX3” value ([3]; with AMD3100) was “completely blocked” and the “nuclear translocation of CXCR4 and pSMAD1/5” value ([3]; with AMD3100) was “eliminated”.
